Our source for the Log10 cfu values is ChEMBL document CHEMBL1137502, “Design and evaluation of analogues of the bacterial cell-wall peptidoglycan motif L-Lys-D-Ala-D-Ala for use in a vancomycin biosensor” (2007).

This assay has as its system Staphylococcus aureus. Kind of assay: Antibacterial activity against Staphylococcus aureus ATCC 25923 assessed as reduction of bacterial count by broth microdilution method. It counts as functional. Background: Broth dilution looks for growth in wells or tubes with falling amounts of substance.

With `CN[C@H](CC(C)C)C(=O)N[C@H]1C(=O)N[C@@H](CC(N)=O)C(=O)N[C@H]2C(=O)N[C@H]3C(=O)N[C@H](C(=O)N[C@H](C(=O)O)c4cc(O)cc(O)c4-c4cc3ccc4O)[C@H](O)c3ccc(c(Cl)c3)Oc3cc2cc(c3O[C@@H]2O[C@H](CO)[C@@H](O)[C@H](O)[C@H]2O[C@H]2C[C@](C)(N)[C@H](O)[C@H](C)O2)Oc2ccc(cc2Cl)[C@H]1O` [VANCOMYCIN], the Log10 cfu is recorded as 1.
